System: GM1 production in Jurkat cells
Assay: cells
Format: cell-based
Details: Homo sapiens, Jurkat, 72 h

First: CC(C)Oc1ccc(F)c(-c2ccc3c(c2)CC(C)(C)C3NC(=O)O[C@@H]2CN3CCC2CC3)c1 (stereo partly drawn) [Example 172, (S)-quinuclidin-3-yl (5-(2-fluoro-5-isopropoxyphenyl)-2,2-dimethyl-2,3-dihydro-1H-inden-1-yl)carbamate]
Second: COc1ccc(-c2ccc3c(c2)CC(C)(C)C3NC(=O)O[C@@H]2CN3CCC2CC3)c(C)c1 (stereo partly drawn) [Example 180, (S)-quinuclidin-3-yl (5-(4-methoxy-2-methylphenyl)-2,2-dimethyl-2,3-dihydro-1H-inden-1-yl)carbamate]
The IC50 of the first is 1.7-fold higher: 48.5 nM for the first, 28.1 nM for the second.

CCCOc1c(C)cc(-c2ccc3c(c2)CC(C)(C)C3NC(=O)O[C@@H]2CN3CCC2CC3)cc1C (stereo partly drawn) [Example 173, (S)-quinuclidin-3-yl (5-(3,5-dimethyl-4-propoxyphenyl)-2,2-dimethyl-2,3-dihydro-1H-inden-1-yl)carbamate] and CCOc1c(C)cc(-c2ccc3c(c2)CC(C)(C)C3NC(=O)O[C@@H]2CN3CCC2CC3)cc1C (stereo partly drawn) [Example 174, (S)-quinuclidin-3-yl (5-(4-ethoxy-3,5-dimethylphenyl)-2,2-dimethyl-2,3-dihydro-1H-inden-1-yl)carbamate] are within 1.5-fold of each other in IC50: 34.8 nM for the first, 40.2 nM for the second.

Going from CCc1ccccc1-c1ccc2c(c1)CC(C)(C)C2NC(=O)O[C@@H]1CN2CCC1CC2 (stereo partly drawn) [Example 175, (S)-quinuclidin-3-yl (5-(2-ethylphenyl)-2,2-dimethyl-2,3-dihydro-1H-inden-1-yl)carbamate] to CCOc1ccccc1-c1ccc2c(c1)CC(C)(C)C2NC(=O)O[C@@H]1CN2CCC1CC2 (stereo partly drawn) [Example 177, (S)-quinuclidin-3-yl (5-(2-ethoxyphenyl)-2,2-dimethyl-2,3-dihydro-1H-inden-1-yl)carbamate], the IC50 falls from 42.8 nM to 22.9 nM (1.9-fold).

COc1ccccc1-c1ccc2c(c1)CC(C)(C)C2NC(=O)O[C@@H]1CN2CCC1CC2 (stereo partly drawn) [Example 176, (S)-quinuclidin-3-yl (5-(2-methoxyphenyl)-2,2-dimethyl-2,3-dihydro-1H-inden-1-yl)carbamate] and COc1cc(F)ccc1-c1ccc2c(c1)CC(C)(C)C2NC(=O)O[C@@H]1CN2CCC1CC2 (stereo partly drawn) [Example 179, (S)-quinuclidin-3-yl (5-(4-fluoro-2-methoxyphenyl)-2,2-dimethyl-2,3-dihydro-1H-inden-1-yl)carbamate] are within 1.5-fold of each other in IC50: 27.6 nM for the first, 41 nM for the second.

CC1(C)Cc2cc(-c3cc(OC(F)(F)F)ccc3Cl)ccc2C1NC(=O)O[C@@H]1CN2CCC1CC2 (stereo partly drawn) [Example 178, (S)-quinuclidin-3-yl (5-(2-chloro-5-(trifluoromethoxy)phenyl)-2,2-dimethyl-2,3-dihydro-1H-inden-1-yl)carbamate] and CC1(C)Cc2cc(-c3ccc(C(F)(F)F)cc3Cl)ccc2C1NC(=O)O[C@@H]1CN2CCC1CC2 (stereo partly drawn) [Example 183, (S)-quinuclidin-3-yl (5-(2-chloro-4-(trifluoromethyl)phenyl)-2,2-dimethyl-2,3-dihydro-1H-inden-1-yl)carbamate] are within 1.5-fold of each other in IC50: 26.9 nM for the first, 18.6 nM for the second.

Compared with CC(C)(C)OCc1ccc(-c2ccc3c(c2)CC(C)(C)C3NC(=O)O[C@@H]2CN3CCC2CC3)cc1 (stereo partly drawn) [Example 181, (S)-quinuclidin-3-yl (5-(4-(tert-butoxymethyl)phenyl)-2,2-dimethyl-2,3-dihydro-1H-inden-1-yl)carbamate], CC(C)(C)Oc1cc(-c2ccc3c(c2)CC(C)(C)C3NC(=O)O[C@@H]2CN3CCC2CC3)ccn1 (stereo partly drawn) [Example 187, (S)-quinuclidin-3-yl (5-(2-(tert-butoxy)pyridin-4-yl)-2,2-dimethyl-2,3-dihydro-1H-inden-1-yl)carbamate] is 5.8-fold higher in IC50: 5.5 nM for the first, 31.7 nM for the second. The first is the more potent here.

Compared with CC1(C)Cc2cc(-c3cccc(C(F)(F)F)c3Cl)ccc2C1NC(=O)O[C@@H]1CN2CCC1CC2 (stereo partly drawn) [Example 182, (S)-quinuclidin-3-yl (5-(2-chloro-3-(trifluoromethyl)phenyl)-2,2-dimethyl-2,3-dihydro-1H-inden-1-yl)carbamate], COc1ncc(-c2ccc3c(c2)CC(C)(C)C3NC(=O)O[C@@H]2CN3CCC2CC3)cc1C(F)(F)F (stereo partly drawn) [Example 188, (S)-quinuclidin-3-yl (5-(6-methoxy-5-(trifluoromethyl)pyridin-3-yl)-2,2-dimethyl-2,3-dihydro-1H-inden-1-yl)carbamate] is 2.2-fold higher in IC50: 20.9 nM for the first, 46.2 nM for the second.

Going from COc1ccc(-c2ccc3c(c2)CC(C)(C)C3NC(=O)O[C@@H]2CN3CCC2CC3)c(OC)n1 (stereo partly drawn) [Example 184, (S)-quinuclidin-3-yl (5-(2,6-dimethoxypyridin-3-yl)-2,2-dimethyl-2,3-dihydro-1H-inden-1-yl)carbamate] to CC(C)Oc1ccc(-c2ccc3c(c2)CC(C)(C)C3NC(=O)O[C@@H]2CN3CCC2CC3)cn1 (stereo partly drawn) [Example 196, (S)-quinuclidin-3-yl (5-(6-isopropoxypyridin-3-yl)-2,2-dimethyl-2,3-dihydro-1H-inden-1-yl)carbamate], the IC50 falls from 40 nM to 23.2 nM (1.7-fold).

Compared with CC1(C)Cc2cc(-c3ccc(OCC4CC4)nc3)ccc2C1NC(=O)O[C@@H]1CN2CCC1CC2 (stereo partly drawn) [Example 185, (S)-quinuclidin-3-yl (5-(6-(cyclopropylmethoxy)pyridin-3-yl)-2,2-dimethyl-2,3-dihydro-1H-inden-1-yl)carbamate], CC1(C)Cc2cc(-c3ccc4nccnc4c3)ccc2C1NC(=O)O[C@@H]1CN2CCC1CC2 (stereo partly drawn) [Example 191, (S)-quinuclidin-3-yl (2,2-dimethyl-5-(quinoxalin-6-yl)-2,3-dihydro-1H-inden-1-yl)carbamate] is 11-fold higher in IC50: 11.1 nM for the first, 123 nM for the second.

Going from CC1(C)Cc2cc(-c3cc4ccccc4s3)ccc2C1NC(=O)O[C@@H]1CN2CCC1CC2 (stereo partly drawn) [Example 186, (S)-quinuclidin-3-yl (5-(benzo[b]thiophen-2-yl)-2,2-dimethyl-2,3-dihydro-1H-inden-1-yl)carbamate] to CC1(C)Cc2cc(-c3cccc(-c4ccccc4)c3)ccc2C1NC(=O)O[C@@H]1CN2CCC1CC2 (stereo partly drawn) [Example 190, (S)-quinuclidin-3-yl (5-([1,1′-biphenyl]-3-yl)-2,2-dimethyl-2,3-dihydro-1H-inden-1-yl)carbamate], the IC50 falls from 82.6 nM to 13.3 nM (6.2-fold).

Going from COc1ccc2cc(-c3ccc4c(c3)CC(C)(C)C4NC(=O)O[C@@H]3CN4CCC3CC4)ccc2c1 (stereo partly drawn) [Example 189, (S)-quinuclidin-3-yl (5-(6-methoxynaphthalen-2-yl)-2,2-dimethyl-2,3-dihydro-1H-inden-1-yl)carbamate] to COc1c(C)cc(-c2ccc3c(c2)CC(C)(C)C3NC(=O)O[C@@H]2CN3CCC2CC3)cc1C (stereo partly drawn) [Example 195, (S)-quinuclidin-3-yl (5-(4-methoxy-3,5-dimethylphenyl)-2,2-dimethyl-2,3-dihydro-1H-inden-1-yl)carbamate], the IC50 rises from 23 nM to 36.1 nM (1.6-fold).

First: Cc1cc(C)cc(-c2ccc3c(c2)CC(C)(C)C3NC(=O)O[C@@H]2CN3CCC2CC3)c1 (stereo partly drawn) [Example 192, (S)-quinuclidin-3-yl (5-(3,5-dimethylphenyl)-2,2-dimethyl-2,3-dihydro-1H-inden-1-yl)carbamate]
Second: Cc1cc(-c2ccc3c(c2)CC(C)(C)C3NC(=O)O[C@@H]2CN3CCC2CC3)cc(C)c1OC(C)C (stereo partly drawn) [Example 194, (S)-quinuclidin-3-yl (5-(4-isopropoxy-3,5-dimethylphenyl)-2,2-dimethyl-2,3-dihydro-1H-inden-1-yl)carbamate]
The IC50 of the first is 1.8-fold lower: 25.8 nM for the first, 47.6 nM for the second.

CC1(C)Cc2cc(-c3ccco3)ccc2C1NC(=O)O[C@@H]1CN2CCC1CC2 (stereo partly drawn) [Example 193, (S)-quinuclidin-3-yl (5-(furan-2-yl)-2,2-dimethyl-2,3-dihydro-1H-inden-1-yl)carbamate] showed an IC50 of 15.3 nM.

Source: patent US12522602B2, “Derivatives having 2,3-dihydro-1H-indene or 2,3-dihydrobenzofuran moiety or pharmaceutically acceptable salt thereof and pharmaceutical compositions comprising the same” (YUHAN CORPORATION, priority 2019, dated 2026)
